# Read-outs that look alike come from different tables or passages of the source.
# What was measured:
# [1] = molecular target: T1, EGFR with insertion of SVD between D770 and N771 (EGFR ins SVD) (Homo sapiens, UniProt P00533, DUP768-770); assay: Exon20-Mutant-EGFR(D770_N771insSVD) kinase assay (TR-FRET); format: biochemical; settings: 2 mM ATP, several values per example where printed
# T1 construct: made in house; host or cells: Sf9 insect cells (baculovirus)
# [2] = molecular target: T2, Bub1 (Homo sapiens, UniProt O43683); assay: Bub1 TR-FRET high ATP kinase assay; format: biochemical; settings: 2 mM ATP
# T2 construct: catalytic domain of human Bub1 (amino acids 704-1085); His6 (N); made in house; host or cells: Hi5 insect cells
# Source text: Bub1 High ATP Kinase Assay
# Bub1-inhibitory activity of compounds of the present invention at a high ATP concentration was quantified employing the Bub1 TR-FRET high ATP kinase assay as described in the following paragraphs.
# N-terminally His6-tagged recombinant catalytic domain of human Bub1 (amino acids 704-1085), expressed in insect cells (Hi5) and purified by Ni-NTA affinity chromatography and subsequent size exclusion chromatography, was used as enzyme. As substrate for the kinase reaction the biotinylated peptide biotin-Ahx-[…]—SEQ ID 7 (C-terminus in amid form) was used which can be purchased e.g. form the company Biosyntan (Berlin, Germany).
# [3] = molecular target: Ba/F3-EGFR-insSVD cells (Homo sapiens, UniProt P00533, DUP768-770, cells depend on it); assay: Ba/F3 cell survival assay (Cell Titer-Glo), EGFR-insSVD; format: cell-based; settings: without IL-3, with 10 ng/mL EGF, 48 h; read-out: BA/F3 (insSVD) IC50
# Experimental: (§1) 293T cells from ATCC were transfected with pBABEpuro expression constructs for WT EGFR or EGFR-insSVD and pCL-Eco packaging vector using Fugene-6 transfection reagent from Promega. Plates were incubated at 37° C. for 48 h. Retrovirus was harvested by filtering the media supernatant through a 0.45 μm filter.
# (§2) Ba/F3 cells purchased from DSMZ were grown in RPMI+10% FBS+10 ng/mL IL-3 and infected with filtered retroviral supernatant at a 1:2 dilution. Polybrene was added to a concentration of 8 μg/mL, plates were spun for 90 min, and incubated overnight at 37° C. 2 μg/mL puromycin was added to the infected cells 24 h after infection and cells were continually grown in the presence of puromycin and 10 ng/mL IL-3. Following stably expressing Ba/F3 cell lines were generated: Ba/F3-EGFR-WT, Ba/F3-EGFR-insSVD, (Ba/F3-vector-control).
# (§3) For cell survival assays, Ba/F3 cells were grown to a density of 1-2 million cells per mL, spun down and resuspended in media without IL-3, and replated at a concentration 200,000-500,000 cells per mL. The cells ectopically expressing WT EGFR or EGFR-insSVD were plated with 10 ng/mL Millipore Culture grade EGF. The cells ectopically expressing pBABEpuro empty vector were plated with 10 ng/mL IL-3. 2 days later, cells were plated in 50 μL in a 384 well plate at a concentration of 4000 cells per well for cells assayed in the absence of IL-3 and 2000 cells per well for cells assayed in the presence of IL-3. 100 nL of compound was added to each well using a 100 nL pin head, and plates were incubated at 37° C. for 48 h.
# (§4) Cell viability was measured by adding 20 μL of Cell Titer-Glo Luminescent Cell Viability Reagent diluted 1:3 in PBS. Plates were sealed with Perkin Elmer Top-Seal, inverted several times to mix, and immediately centrifuged at 1000 rpm for 2 min. Plates were incubated in low light conditions for 8-10 min and luminescence was measured.
# [4] = molecular target: Ba/F3-EGFR-WT cells (Homo sapiens, UniProt P00533); assay: Ba/F3 cell survival assay (Cell Titer-Glo), WT EGFR; format: cell-based; settings: without IL-3, with 10 ng/mL EGF, 48 h; read-out: BA/F3 (wild type) IC50
# Experimental: as §1, §2, §3, §4
# [5] = Bub1 high ATP (2 mM) IC50 [mol/l]
# [6] = read-out: Bub1 high ATP (2 mM) IC50 [mol/l]
# T1 sequence (P00533 with tags, fused parts or gaps DUP768-770): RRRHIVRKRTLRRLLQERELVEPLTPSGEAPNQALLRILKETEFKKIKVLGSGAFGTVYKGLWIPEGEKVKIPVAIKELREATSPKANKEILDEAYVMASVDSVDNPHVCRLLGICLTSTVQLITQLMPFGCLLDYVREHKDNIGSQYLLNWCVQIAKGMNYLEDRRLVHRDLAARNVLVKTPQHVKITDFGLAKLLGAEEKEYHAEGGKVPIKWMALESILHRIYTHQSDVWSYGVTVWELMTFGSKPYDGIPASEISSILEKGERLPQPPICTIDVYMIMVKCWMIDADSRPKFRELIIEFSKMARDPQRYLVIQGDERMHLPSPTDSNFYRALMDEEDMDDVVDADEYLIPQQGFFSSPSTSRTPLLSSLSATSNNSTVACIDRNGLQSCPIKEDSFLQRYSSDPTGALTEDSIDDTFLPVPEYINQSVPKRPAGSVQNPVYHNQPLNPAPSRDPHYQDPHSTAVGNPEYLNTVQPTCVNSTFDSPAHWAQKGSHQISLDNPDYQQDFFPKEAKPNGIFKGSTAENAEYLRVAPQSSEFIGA
# Sequence of Ba/F3-EGFR-WT cells (P00533 whole entry, change not shown): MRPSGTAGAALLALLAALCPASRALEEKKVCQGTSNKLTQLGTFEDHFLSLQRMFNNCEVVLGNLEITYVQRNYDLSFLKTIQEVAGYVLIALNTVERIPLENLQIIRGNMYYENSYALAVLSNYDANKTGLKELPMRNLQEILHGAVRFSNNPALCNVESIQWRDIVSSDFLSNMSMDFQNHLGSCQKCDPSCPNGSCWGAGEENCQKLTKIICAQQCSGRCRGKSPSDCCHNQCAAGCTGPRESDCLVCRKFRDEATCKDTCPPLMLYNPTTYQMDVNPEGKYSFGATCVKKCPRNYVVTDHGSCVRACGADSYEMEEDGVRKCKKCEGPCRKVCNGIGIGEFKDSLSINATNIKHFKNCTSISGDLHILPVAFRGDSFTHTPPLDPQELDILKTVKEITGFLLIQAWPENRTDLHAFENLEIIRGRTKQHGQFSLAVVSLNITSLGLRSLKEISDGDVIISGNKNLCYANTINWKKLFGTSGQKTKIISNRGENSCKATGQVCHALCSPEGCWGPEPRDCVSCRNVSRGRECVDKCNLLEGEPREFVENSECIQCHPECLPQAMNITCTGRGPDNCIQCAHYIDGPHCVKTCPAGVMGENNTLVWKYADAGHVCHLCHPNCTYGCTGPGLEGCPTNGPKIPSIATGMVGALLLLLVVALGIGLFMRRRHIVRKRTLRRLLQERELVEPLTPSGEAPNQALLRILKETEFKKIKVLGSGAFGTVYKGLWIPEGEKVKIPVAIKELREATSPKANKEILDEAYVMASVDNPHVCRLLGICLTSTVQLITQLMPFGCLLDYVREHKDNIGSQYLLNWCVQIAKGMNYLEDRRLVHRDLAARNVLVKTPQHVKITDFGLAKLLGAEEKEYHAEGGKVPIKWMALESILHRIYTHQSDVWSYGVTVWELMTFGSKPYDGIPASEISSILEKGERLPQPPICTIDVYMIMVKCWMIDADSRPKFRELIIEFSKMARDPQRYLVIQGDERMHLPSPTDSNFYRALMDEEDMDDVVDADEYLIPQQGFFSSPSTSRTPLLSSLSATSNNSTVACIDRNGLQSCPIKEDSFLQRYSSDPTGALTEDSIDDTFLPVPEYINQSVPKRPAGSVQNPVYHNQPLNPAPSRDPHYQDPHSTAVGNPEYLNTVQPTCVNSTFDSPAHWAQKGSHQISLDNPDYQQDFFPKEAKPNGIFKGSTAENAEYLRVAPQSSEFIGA
# T2 sequence (O43683 704-1085): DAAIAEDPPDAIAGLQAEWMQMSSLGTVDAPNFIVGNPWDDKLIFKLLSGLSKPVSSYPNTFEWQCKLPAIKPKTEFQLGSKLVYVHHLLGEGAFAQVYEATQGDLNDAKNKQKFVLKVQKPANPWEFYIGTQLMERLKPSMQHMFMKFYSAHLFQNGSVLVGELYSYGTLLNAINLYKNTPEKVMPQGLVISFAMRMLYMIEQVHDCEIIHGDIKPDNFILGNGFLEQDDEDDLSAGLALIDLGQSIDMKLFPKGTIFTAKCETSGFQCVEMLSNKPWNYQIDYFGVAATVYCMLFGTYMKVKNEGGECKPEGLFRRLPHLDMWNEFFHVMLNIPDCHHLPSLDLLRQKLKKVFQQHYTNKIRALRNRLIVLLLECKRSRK
# Sequence of Ba/F3-EGFR-insSVD cells (P00533 with tags, fused parts or gaps DUP768-770): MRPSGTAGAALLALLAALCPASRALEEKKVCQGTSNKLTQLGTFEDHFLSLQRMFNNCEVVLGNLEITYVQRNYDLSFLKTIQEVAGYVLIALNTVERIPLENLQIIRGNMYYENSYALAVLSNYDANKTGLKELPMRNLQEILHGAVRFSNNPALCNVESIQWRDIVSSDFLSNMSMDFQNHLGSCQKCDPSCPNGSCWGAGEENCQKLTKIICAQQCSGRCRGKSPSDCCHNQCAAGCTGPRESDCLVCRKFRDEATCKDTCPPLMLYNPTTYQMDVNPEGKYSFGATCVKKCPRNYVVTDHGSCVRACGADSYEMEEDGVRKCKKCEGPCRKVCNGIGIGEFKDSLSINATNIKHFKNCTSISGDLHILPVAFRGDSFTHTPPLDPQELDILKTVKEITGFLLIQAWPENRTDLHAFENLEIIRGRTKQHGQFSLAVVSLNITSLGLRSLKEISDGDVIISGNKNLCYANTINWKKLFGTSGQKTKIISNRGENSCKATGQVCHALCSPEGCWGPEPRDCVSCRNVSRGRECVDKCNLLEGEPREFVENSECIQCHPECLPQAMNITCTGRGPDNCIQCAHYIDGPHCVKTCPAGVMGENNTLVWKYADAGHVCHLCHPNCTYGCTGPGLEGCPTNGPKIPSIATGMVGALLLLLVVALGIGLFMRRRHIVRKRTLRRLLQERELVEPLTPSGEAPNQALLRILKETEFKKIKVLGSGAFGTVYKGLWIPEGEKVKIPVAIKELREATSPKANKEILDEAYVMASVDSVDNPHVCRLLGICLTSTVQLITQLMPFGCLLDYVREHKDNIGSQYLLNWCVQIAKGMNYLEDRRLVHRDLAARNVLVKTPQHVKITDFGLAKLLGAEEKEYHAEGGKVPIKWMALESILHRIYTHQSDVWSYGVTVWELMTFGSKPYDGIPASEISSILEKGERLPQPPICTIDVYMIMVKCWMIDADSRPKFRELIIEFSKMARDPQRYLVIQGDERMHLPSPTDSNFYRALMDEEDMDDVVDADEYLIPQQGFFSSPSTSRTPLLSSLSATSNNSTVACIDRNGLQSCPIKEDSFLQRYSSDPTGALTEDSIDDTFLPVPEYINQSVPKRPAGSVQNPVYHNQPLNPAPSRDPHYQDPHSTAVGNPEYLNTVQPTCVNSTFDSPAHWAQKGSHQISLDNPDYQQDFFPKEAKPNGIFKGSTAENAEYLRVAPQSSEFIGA
mutEGFR (D770_N771insSVD) kinase assay IC50 [1] [nM],"IC50 [2, 5] [nM]","IC50 [2, 6] [nM]",SMILES,GI50 [3] [nM],GI50 [4] [nM]
0.0873,> 20000,,"COc1c(F)cccc1Nc1c(-c2ccncc2OCCC2COCCO2)[nH]c2c1C(=O)NCC2 (single isomer, unassigned) [Example 35, 2-(3-{2-[1,4-dioxan-2-yl]ethoxy}pyridin-4-yl)-3-(3-fluoro-2-methoxyanilino)-1,5,6,7-tetrahydro-4H-pyrrolo[3,2-c]pyridin-4-one]",21.5,261
0.304,> 20000,,"Cc1c(F)cccc1Nc1c(-c2ccncc2OCC2COC(C)(C)CO2)[nH]c2c1C(=O)NCC2 (single isomer, unassigned) [Example 39, 2-[3-[(5,5-dimethyl-1,4-dioxan-2-yl)methoxy]-4-pyridyl]-3-(3-fluoro-2-methyl-anilino)-1,5,6,7-tetrahydropyrrolo[3,2-c]pyridin-4-one]",44,630
0.17,3930,,"Cc1c(F)cccc1Nc1c(-c2ccncc2OCC2COCCO2)[nH]c2c1C(=O)NCC2 (single isomer, unassigned) [Example 49, 2-[3-(1,4-dioxan-2-ylmethoxy)-4-pyridyl]-3-(3-fluoro-2-methyl-anilino)-1,5,6,7-tetrahydropyrrolo[3,2-c]pyridin-4-one]",53.6,785
0.136,1520,,"Cc1c(Cl)cccc1Nc1c(-c2ccncc2OC[C@H]2COCCO2)[nH]c2c1C(=O)NCC2 (single isomer, unassigned) [Example 51]",46.7,742
0.426,1360,,"CCc1c(Cl)cccc1Nc1c(-c2ccncc2OC[C@@H]2COCCO2)[nH]c2c1C(=O)NCC2 (single isomer, unassigned) [Example 53]",21.3,408
0.571,994,,"CCc1c(Cl)cccc1Nc1c(-c2ccncc2OC[C@H]2COCCO2)[nH]c2c1C(=O)NCC2 (single isomer, unassigned) [Example 54]",80.9,917
0.235,12200,,"COc1c(Cl)cccc1Nc1c(-c2ccncc2O[C@@H](C)C2COCCO2)[nH]c2c1C(=O)NCC2 (single isomer, unassigned) [Example 59, 3-(3-chloro-2-methoxyanilino)-2-{3-[(1 S)-1-(1,4-dioxan-2-yl)ethoxy]pyridin-4-yl}-1,5,6,7-tetrahydro-4H-pyrrolo[3,2-c]pyridin-4-one]",18.6,336
0.305,16400,,"COc1c(Cl)cccc1Nc1c(-c2ccncc2O[C@H](C)C2COCCO2)[nH]c2c1C(=O)NCC2 (single isomer, unassigned) [Example 60]",52.7,946
0.265,> 20000,,"Cc1c(F)cccc1Nc1c(-c2ccncc2OCC2CN(C)CCO2)[nH]c2c1C(=O)NCC2 (single isomer, unassigned) [Example 63, 3-(3-fluoro-2-methylanilino)-2-(3-{[4-methylmorpholin-2-yl]methoxy}pyridin-4-yl)-1,5,6,7-tetrahydro-4H-pyrrolo[3,2-c]pyridin-4-one]",147,1370
0.187,,> 20000,"Cc1c(F)cccc1Nc1c(-c2ccncc2OCC2CN(C)CCO2)[nH]c2c1C(=O)NCC2 (single isomer, unassigned) [Example 64, 3-(3-fluoro-2-methylanilino)-2-(3-{[4-methylmorpholin-2-yl]methoxy}pyridin-4-yl)-1,5,6,7-tetrahydro-4H-pyrrolo[3,2-c]pyridin-4-one]",7.58,271
0.182,5040,,"CCc1c(F)cccc1Nc1c(-c2ccncc2OCC2COCCO2)[nH]c2c1C(=O)NCC2 (single isomer, unassigned) [Example 66, 2-(3-{[1,4-dioxan-2-yl]methoxy}pyridin-4-yl)-3-(2-ethyl-3-fluoroanilino)-1,5,6,7-tetrahydro-4H-pyrrolo[3,2-c]pyridin-4-one]",7.52,252
0.217,2080,,"CCc1c(F)cccc1Nc1c(-c2ccncc2OCC2COCCO2)[nH]c2c1C(=O)NCC2 (single isomer, unassigned) [Example 67, 2-(3-{[1,4-dioxan-2-yl]methoxy}pyridin-4-yl)-3-(2-ethyl-3-fluoroanilino)-1,5,6,7-tetrahydro-4H-pyrrolo[3,2-c]pyridin-4-one]",29,198
0.233,> 20000,,"CCc1c(F)cccc1Nc1c(-c2ccncc2OCC2COC(C)(C)CO2)[nH]c2c1C(=O)NCC2 (single isomer, unassigned) [Example 69, 2-(3-{[5,5-dimethyl-1,4-dioxan-2-yl]methoxy}pyridin-4-yl)-3-(2-ethyl-3-fluoroanilino)-1,5,6,7-tetrahydro-4H-pyrrolo[3,2-c]pyridin-4-one]",7.17,312
0.168,,> 20000,"CCc1c(F)cccc1Nc1c(-c2ccncc2OCC2COC(C)(C)CO2)[nH]c2c1C(=O)NCC2 (single isomer, unassigned) [Example 70, 2-(3-{[5,5-dimethyl-1,4-dioxan-2-yl]methoxy}pyridin-4-yl)-3-(2-ethyl-3-fluoroanilino)-1,5,6,7-tetrahydro-4H-pyrrolo[3,2-c]pyridin-4-one]",67.9,714
1.41,> 20000,,"COc1c(Cl)cccc1Nc1c(-c2ccncc2OC(C)C2CN(C)CCO2)[nH]c2c1C(=O)NCC2 (single isomer, unassigned) [Example 72, 3-(3-chloro-2-methoxyanilino)-2-[3-({1-[4-methylmorpholin-2-yl]ethyl}oxy)pyridin-4-yl]-1,5,6,7-tetrahydro-4H-pyrrolo[3,2-c]pyridin-4-one]",67.3,957
1.12,,> 20000,"COc1c(Cl)cccc1Nc1c(-c2ccncc2OC(C)C2CN(C)CCO2)[nH]c2c1C(=O)NCC2 (single isomer, unassigned) [Example 73, 3-(3-chloro-2-methoxyanilino)-2-[3-({1-[4-methylmorpholin-2-yl]ethyl}oxy)pyridin-4-yl]-1,5,6,7-tetrahydro-4H-pyrrolo[3,2-c]pyridin-4-one]",78,1280
0.661,,> 20000,"COc1c(Cl)cccc1Nc1c(-c2ccncc2OC(C)C2CN(C)CCO2)[nH]c2c1C(=O)NCC2 (single isomer, unassigned) [Example 74, 3-(3-chloro-2-methoxyanilino)-2-[3-({1-[-4-methylmorpholine-2-yl]ethyl}oxy)pyridin-4-yl]-1,5,6,7-tetrahydro-4H-pyrrolo[3,2-c]pyridin-4-one]",51.1,828

# From US12679836B2, “4H-pyrrolo[3,2-c]pyridin-4-one compounds” (Bayer Aktiengesellschaft, priority 2019, dated 2026)
